The source of these data is patent US8604048B2, “Pyridocarbazole type compounds and applications thereof” (Centre National de la Recherche Scientifique, priority 2009, dated 2013).

One experiment has as its system HeLa cells. Nature of the experiment: Cell growth test (MTT), HeLa. It counts as cell-based. As to conditions: Homo sapiens, MTT test after 48 h, read-out: IC50 (concentration necessary to inhibit 50% of cell growth). The protocol:
(§1) The cell growth tests are carried out in transparent 96-well microplates (Greiner) after having seeded 100 μl/well of a cell solution having 2·10^5 cells/ml to 5·10^5 cells/ml (depending on the cell lines). After incubating for 24 h at 37° C. with 5% CO2, the culture medium is removed and replaced with solutions of the molecule to be tested at various concentrations. The cells are incubated with these molecules for an additional 48 h at 37° C. with 5% CO2. After elimination of the medium, the cells are washed with blank RPMI (Gibco, Invitrogen) then incubated with 3-(4,5-dimethylthiazol-2-yl)-2,5-diphenyltetrazolium bromide or MTT (0.5 mg/ml final concentration) for 4 h at 37° C. with 5% CO2. MTT (Sigma Aldrich) makes it possible to estimate the viability of the cells by measuring the activity of a mitochondrial enzyme. Indeed, in living cells, mitochondrial dehydrogenases are capable of cleaving the tetrazolium ring, thus leading to the formation of formazan crystals that are insoluble in an aqueous medium. These crystals are dissolved with the addition of a solubilizing solution (isopropanol, 10% Triton X100, 0.1 N HCl). After stirring, the absorbance is measured at 570 nm using the FLUOstar OPTIMA microplate reader. […]
(§2) The viability of the cells was evaluated using an MTT test after 48 h of exposure with various concentrations of molecules (from 100 μM to 0.001 μM). […]
A general note: Tetrazolium dyes change colour on reduction, which living cells bring about.

A further experiment concerns NCI-H460 cells. In words: Cell growth test (MTT), NCI-H460. It counts as cell-based. The note with it: Homo sapiens; NCI-H460, MTT test after 48 h; read-out: IC50 (concentration necessary to inhibit 50% of cell growth). The protocol: as §1, §2
Experiment [1] concerns Glu-tubulin signal in HeLa cells. In words: Glu-tubulin dose-effect, immunofluorescence in microplates. It counts as cell-based, Human. As to conditions: 2 h, highest concentrations. The protocol: HeLa cells are seeded in black-bottomed black 96-well microplates (Greiner 655086) by distributing 90 μl per well of a cell solution containing 40 000 cells/ml, and incubated at 37° C. with 5% CO2. 24 h later, the cells are incubated with the molecules to be tested for 2 h at 37° C. with 5% CO2. The cells are then permeabilized with warm OPT buffer for 6 minutes at 37° C. then fixed in methanol for 10 minutes at room temperature. The cells are rinsed twice with PBS/0.1% Tween® 20 and incubated with the primary antibodies YL1/2 and L4 (cf. the antibodies from Table III) diluted to 1/4000 in a solution of PBS/0.3% BSA/0.02% NaN3 overnight at 37° C. […] The various fluorescence intensities are measured using the FLUOstar OPTIMA reader. […]
A dose-effect curve measuring the variation of the amount of Glu-tubulin was produced for Compound 1 of the invention. […] The fluorescence intensity was then measured using the microplate reader.
The percentage of the signal measured represents its distance relative to the control of bioactivity (paclitaxel (Taxol®)) and to the control of bioinactivity (DMSO). The EC50 was determined using KaleidaGraph® 3.60 software.

In a further experiment the target is T1, recombinant human LIMK1 (Homo sapiens, UniProt P53667).
T1 construct: 6His (N); purchased Millipore 14-656
T1 sequence (P53667 whole entry): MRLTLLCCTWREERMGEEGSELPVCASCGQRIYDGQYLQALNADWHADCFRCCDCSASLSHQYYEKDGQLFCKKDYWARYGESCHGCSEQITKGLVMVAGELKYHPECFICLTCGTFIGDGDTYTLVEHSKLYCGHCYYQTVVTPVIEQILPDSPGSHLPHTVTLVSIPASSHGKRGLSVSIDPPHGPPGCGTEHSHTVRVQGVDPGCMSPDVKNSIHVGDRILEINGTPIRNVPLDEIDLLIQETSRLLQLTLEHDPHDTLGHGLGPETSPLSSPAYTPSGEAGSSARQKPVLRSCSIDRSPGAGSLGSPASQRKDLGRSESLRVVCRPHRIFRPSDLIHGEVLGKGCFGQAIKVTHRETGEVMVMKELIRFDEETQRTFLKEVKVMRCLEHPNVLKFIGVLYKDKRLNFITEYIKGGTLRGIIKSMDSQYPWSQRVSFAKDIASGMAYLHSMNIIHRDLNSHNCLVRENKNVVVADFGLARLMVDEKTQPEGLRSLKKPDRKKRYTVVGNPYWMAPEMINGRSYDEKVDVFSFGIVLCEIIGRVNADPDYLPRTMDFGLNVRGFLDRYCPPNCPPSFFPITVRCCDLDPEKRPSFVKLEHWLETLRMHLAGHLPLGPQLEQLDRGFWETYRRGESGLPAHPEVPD
In words: Radiometric LIMK1 kinase assay. As to conditions: Lineweaver-Burk plots. Format: biochemical. The method, then:
Compounds were tested in a radiometric LIMK1 assay performed in a final volume of 25 μl containing 3 μl of compound or equivalent amount of DMSO as control, 2 μl (1 ng) of N-terminal 6His-tagged recombinant human LIMK1 (Millipore #14-656, in 20 mM MOPS pH=7.0, 1 mM EDTA, 0.01% NP-40, 5% glycerol, 0.1% β-mercaptoethanol, 1 mg·ml^−1 Bovine Serum Albumin) and a mixture containing […] pH=7.0, 200 μM EDTA, 70 μM of recombinant GST-cofilin 1, 25 mM Mg(OAc)2, and 360 μM [γ-^32P]-ATP. Assays were performed at 30° C. for 10 minutes before termination by the addition of 5 μl of 3% orthophosphoric acid. 25 μL aliquots were then spotted onto P80 filter square (4 cm^2). Filters were rinsed three times for 5 minutes by 0.5% orthophosphoric acid at 4° C. and transferred to scintillation vial. Following addition of scintillation cocktail (Ultima Gold, Perkin-Elmer), ^32P incorporation was measured using a scintillation counter.
FIG. 10 illustrates the inhibition of LIMK1 by Compound 1 (H06). Radiometric LIMK1 kinase assay was performed as described in Example 2; the following conditions were tested: without LIMK1 (‘−LIMK1’), with LIMK1 (1 ng) in presence of 5 μM H06 (‘5 μM H06’), 25 μM H06 (‘25 μM H06’) or with equivalent amount of DMSO (‘Ctl’).
Error bars represent standard error mean. […]

Another experiment relates to MES-SA cells. In words: Cell growth test (MTT), MES-SA. It counts as cell-based. As to conditions: Homo sapiens, MTT test after 48 h, read-out: IC50 (concentration necessary to inhibit 50% of cell growth). The method, then:
as §1, §2

For `Cc1c2cc[nH]c(=O)c2c(C)c2c1[nH]c1ccc(OC(=O)c3ccccc3)cc12` [Compound 1, 9-benzoyloxy-5,11-dimethyl-2H,6H-pyrido[4,3-b]carbazol-1-one], the results for the IC50 with HeLa cells, with NCI-H460 cells and in the experiment on MES-SA cells were 1.21 µM, 6.65 µM and 26 µM, respectively. For the same molecule, the “Increase in the Glu signal relative to paclitaxel” value in experiment [1] is “slightly smaller than that of paclitaxel”. The “Inhibition mechanism on LIMK1” value at recombinant human LIMK1 (70 nM and 280 nM compound) was “ATP competitor”. In addition, the Ki (usually a dissociation constant, usually derived from enzyme kinetics or from competition with a known ligand) at recombinant human LIMK1 (ATP competition) was roughly 0.06 µM.
